# From patent publication US9949475B2, “Composition comprising active ingredient, oil and ionic liquid” (priority 2011, dated 2018)
# Where two headings read alike, the source gives them in different places.
# Test: Solubility of agrochemical active ingredient in oil comprising ionic liquid
# Format: physicochemical
# Settings: for solubility: 21 °C, thermodynamic from solid
# Description: Alternatively, the oil, which comprised the ionic liquid, was saturated with the active ingredient and the soluble fraction of active ingredient was quantified by means of HPLC. In the first line of the tables, in each case the weight ratios of oil to IL are given.
structure (smiles),measurement,setting,value
"Cn1cc(C(=O)Nc2ccccc2-c2cc(F)c(F)c(F)c2)c(C(F)F)n1 [fluxapyroxad, 3-(difluoromethyl)-1-methyl-N-(3′,4′,5′-trifluorobiphenyl-2-yl)pyrazole-4-carboxamide]","Solubility of fluxapyroxad with Agnique AMD 12 ® (N,N-dimethyldodecanamide, lauryl N,N-dimethylamide) as oil","21° C., Oil/IL 20/80 weight ratio, IL N-butyl-N′-methylimidazolium acetate",43.1 mg/mL
same,"Solubility of fluxapyroxad with Agnique AMD 12 ® (N,N-dimethyldodecanamide, lauryl N,N-dimethylamide) as oil","21° C., Oil/IL 20/80 weight ratio, IL N-ethyl-N′-methylimidazolium acetate",39.5 mg/mL
same,"Solubility of fluxapyroxad with Agnique AMD 12 ® (N,N-dimethyldodecanamide, lauryl N,N-dimethylamide) as oil","21° C., Oil/IL 20/80 weight ratio, IL N-ethyl-N′-methylimidazolium isononanoate",38.4 mg/mL
same,"Solubility of fluxapyroxad with Agnique AMD 12 ® (N,N-dimethyldodecanamide, lauryl N,N-dimethylamide) as oil","21° C., Oil/IL 20/80 weight ratio, IL Tetrabutylammonium [2-(2-methoxyethoxy)ethoxy]acetate",37.5 mg/mL
same,"Solubility of fluxapyroxad with Agnique AMD 12 ® (N,N-dimethyldodecanamide, lauryl N,N-dimethylamide) as oil","21° C., Oil/IL 60/40 weight ratio, IL N-butyl-N′-methylimidazolium acetate",55.9 mg/mL
same,"Solubility of fluxapyroxad with Agnique AMD 12 ® (N,N-dimethyldodecanamide, lauryl N,N-dimethylamide) as oil","21° C., Oil/IL 60/40 weight ratio, IL N-ethyl-N′-methylimidazolium acetate",40.4 mg/mL
same,"Solubility of fluxapyroxad with Agnique AMD 12 ® (N,N-dimethyldodecanamide, lauryl N,N-dimethylamide) as oil","21° C., Oil/IL 60/40 weight ratio, IL N-ethyl-N′-methylimidazolium isononanoate",48.1 mg/mL
same,"Solubility of fluxapyroxad with Agnique AMD 12 ® (N,N-dimethyldodecanamide, lauryl N,N-dimethylamide) as oil","21° C., Oil/IL 60/40 weight ratio, IL Tetrabutylammonium [2-(2-methoxyethoxy)ethoxy]acetate",33.1 mg/mL
same,"Solubility of fluxapyroxad with Agnique AMD 12 ® (N,N-dimethyldodecanamide, lauryl N,N-dimethylamide) as oil","21° C., Oil/IL 90/10 weight ratio, IL N-ethyl-N′-methylimidazolium acetate",38.2 mg/mL
same,"Solubility of fluxapyroxad with Agnique AMD 12 ® (N,N-dimethyldodecanamide, lauryl N,N-dimethylamide) as oil","21° C., Oil/IL 90/10 weight ratio, IL Tetrabutylammonium [2-(2-methoxyethoxy)ethoxy]acetate",29.7 mg/mL
same,solubility,"oil or lipid, 21° C., Oil/IL 20/80 weight ratio, IL N-ethyl-N′-ethylimidazolium propionate, read-out: Solubility of fluxapyroxad with Solvesso ® 200 ND as oil",39.4 mg/mL
same,solubility,"oil or lipid, 21° C., Oil/IL 20/80 weight ratio, IL N-ethyl-N′-methylimidazolium isononanoate, read-out: Solubility of fluxapyroxad with Solvesso ® 200 ND as oil",28.6 mg/mL
same,solubility,"oil or lipid, 21° C., Oil/IL 60/40 weight ratio, IL N-ethyl-N′-ethylimidazolium propionate, read-out: Solubility of fluxapyroxad with Solvesso ® 200 ND as oil",50.5 mg/mL
same,solubility,"oil or lipid, 21° C., Oil/IL 60/40 weight ratio, IL N-ethyl-N′-methylimidazolium isononanoate, read-out: Solubility of fluxapyroxad with Solvesso ® 200 ND as oil",42.9 mg/mL
same,solubility,"oil or lipid, 21° C., Oil/IL 90/10 weight ratio, IL N-ethyl-N′-ethylimidazolium propionate, read-out: Solubility of fluxapyroxad with Solvesso ® 200 ND as oil",21.3 mg/mL
same,solubility,"oil or lipid, 21° C., Oil/IL 90/10 weight ratio, IL N-ethyl-N′-methylimidazolium isononanoate, read-out: Solubility of fluxapyroxad with Solvesso ® 200 ND as oil",15.3 mg/mL
same,solubility,"oil or lipid, 21° C., Oil/IL 90/10 weight ratio, IL Tetrabutylammonium [2-(2-methoxyethoxy)ethoxy]acetate, read-out: Solubility of fluxapyroxad with Solvesso ® 200 ND as oil",18.4 mg/mL
same,solubility,"oil or lipid, Solubility of fluxapyroxad with Agnique AMD 12 ® (N,N-dimethyldodecanamide, lauryl N,N-dimethylamide) as oil",25.9 mg/mL
same,solubility,"organic solvent or mixture, 21° C., 100 IL (no oil), IL N-ethyl-N′-methylimidazolium isononanoate, read-out: Solubility of fluxapyroxad with Cetiol ® B as oil",9.5 mg/mL
same,solubility,"organic solvent or mixture, 21° C., 100 IL (no oil), IL N-ethyl-N′-methylimidazolium isononanoate, read-out: Solubility of fluxapyroxad with Solvesso ® 200 ND as oil",9.5 mg/mL
same,solubility,"organic solvent or mixture, 21° C., 100 IL (no oil), IL Tetrabutylammonium [2-(2-methoxyethoxy)ethoxy]acetate, read-out: Solubility of fluxapyroxad with Solvesso ® 200 ND as oil",9.5 mg/mL
same,solubility,"organic solvent or mixture, Solubility of fluxapyroxad with Agnique AMD 12 ® (N,N-dimethyldodecanamide, lauryl N,N-dimethylamide) as oil",5 mg/mL
same,solubility,"organic solvent or mixture, Solubility of fluxapyroxad with Cetiol ® B as oil",5 mg/mL
same,solubility,"organic solvent or mixture, Solubility of fluxapyroxad with Solvesso ® 200 ND as oil",5 mg/mL
same,solubility,"Cetiol B / N-ethyl-N′-methylimidazolium isononanoate mixture, oil or lipid, 21° C., Oil/IL 20/80 weight ratio, IL N-ethyl-N′-methylimidazolium isononanoate, read-out: Solubility of fluxapyroxad with Cetiol ® B as oil",48.7 mg/mL
same,solubility,"Cetiol B / N-ethyl-N′-methylimidazolium isononanoate mixture, oil or lipid, 21° C., Oil/IL 60/40 weight ratio, IL N-ethyl-N′-methylimidazolium isononanoate, read-out: Solubility of fluxapyroxad with Cetiol ® B as oil",46.7 mg/mL
same,solubility,"Cetiol B / N-ethyl-N′-methylimidazolium isononanoate mixture, oil or lipid, 21° C., Oil/IL 90/10 weight ratio, IL N-ethyl-N′-methylimidazolium isononanoate, read-out: Solubility of fluxapyroxad with Cetiol ® B as oil",20.7 mg/mL
same,solubility,"Cetiol B / cholinium octanoate mixture, oil or lipid, 21° C., Oil/IL 20/80 weight ratio, IL Cholinium octanoate, read-out: Solubility of fluxapyroxad with Cetiol ® B as oil",34.2 mg/mL
same,solubility,"Cetiol B oil comprising ionic liquid, oil or lipid, 21° C., Oil/IL 20/80 weight ratio, IL N-butyl-N′-methylimidazolium acetate, read-out: Solubility of fluxapyroxad with Cetiol ® B as oil",54.9 mg/mL
same,solubility,"Cetiol B oil comprising ionic liquid, oil or lipid, 21° C., Oil/IL 20/80 weight ratio, IL N-butyl-N′-methylimidazolium dimethylphosphate, read-out: Solubility of fluxapyroxad with Cetiol ® B as oil",44.1 mg/mL
same,solubility,"Cetiol B oil comprising ionic liquid, oil or lipid, 21° C., Oil/IL 20/80 weight ratio, IL N-ethyl-N′-ethylimidazolium propionate, read-out: Solubility of fluxapyroxad with Cetiol ® B as oil",60.2 mg/mL
same,solubility,"Cetiol B oil comprising ionic liquid, oil or lipid, 21° C., Oil/IL 20/80 weight ratio, IL N-ethyl-N′-methylimidazolium acetate, read-out: Solubility of fluxapyroxad with Cetiol ® B as oil",56.2 mg/mL
same,solubility,"Cetiol B oil comprising ionic liquid, oil or lipid, 21° C., Oil/IL 20/80 weight ratio, IL N-ethyl-N′-methylimidazolium dibutylphosphate, read-out: Solubility of fluxapyroxad with Cetiol ® B as oil",16.8 mg/mL
same,solubility,"Cetiol B oil comprising ionic liquid, oil or lipid, 21° C., Oil/IL 20/80 weight ratio, IL N-ethyl-N′-methylimidazolium heptanoate, read-out: Solubility of fluxapyroxad with Cetiol ® B as oil",28.4 mg/mL
same,solubility,"Cetiol B oil comprising ionic liquid, oil or lipid, 21° C., Oil/IL 20/80 weight ratio, IL N-ethyl-N′-methylimidazolium octanoate, read-out: Solubility of fluxapyroxad with Cetiol ® B as oil",25.7 mg/mL
same,solubility,"Cetiol B oil comprising ionic liquid, oil or lipid, 21° C., Oil/IL 20/80 weight ratio, IL N-propyl-N′-propylimidazolium acetate, read-out: Solubility of fluxapyroxad with Cetiol ® B as oil",59.2 mg/mL
same,solubility,"Cetiol B oil comprising ionic liquid, oil or lipid, 21° C., Oil/IL 20/80 weight ratio, IL Tetrabutylammonium [2-(2-methoxyethoxy)ethoxy]acetate, read-out: Solubility of fluxapyroxad with Cetiol ® B as oil",38.3 mg/mL
same,solubility,"Cetiol B oil comprising ionic liquid, oil or lipid, 21° C., Oil/IL 60/40 weight ratio, IL Cholinium octanoate, read-out: Solubility of fluxapyroxad with Cetiol ® B as oil",33.6 mg/mL
same,solubility,"Cetiol B oil comprising ionic liquid, oil or lipid, 21° C., Oil/IL 60/40 weight ratio, IL N-butyl-N′-methylimidazolium acetate, read-out: Solubility of fluxapyroxad with Cetiol ® B as oil",50.6 mg/mL
